Data on 22 compounds can be found in patent US11332459B2 (TEIJIN PHARMA LIMITED, priority 2017, dated 2022).

The test deals with T1, human TRPC6 (Homo sapiens, UniProt Q9Y210).
T1 construct: expressed in transfected cells
T1 sequence (Q9Y210 1-931): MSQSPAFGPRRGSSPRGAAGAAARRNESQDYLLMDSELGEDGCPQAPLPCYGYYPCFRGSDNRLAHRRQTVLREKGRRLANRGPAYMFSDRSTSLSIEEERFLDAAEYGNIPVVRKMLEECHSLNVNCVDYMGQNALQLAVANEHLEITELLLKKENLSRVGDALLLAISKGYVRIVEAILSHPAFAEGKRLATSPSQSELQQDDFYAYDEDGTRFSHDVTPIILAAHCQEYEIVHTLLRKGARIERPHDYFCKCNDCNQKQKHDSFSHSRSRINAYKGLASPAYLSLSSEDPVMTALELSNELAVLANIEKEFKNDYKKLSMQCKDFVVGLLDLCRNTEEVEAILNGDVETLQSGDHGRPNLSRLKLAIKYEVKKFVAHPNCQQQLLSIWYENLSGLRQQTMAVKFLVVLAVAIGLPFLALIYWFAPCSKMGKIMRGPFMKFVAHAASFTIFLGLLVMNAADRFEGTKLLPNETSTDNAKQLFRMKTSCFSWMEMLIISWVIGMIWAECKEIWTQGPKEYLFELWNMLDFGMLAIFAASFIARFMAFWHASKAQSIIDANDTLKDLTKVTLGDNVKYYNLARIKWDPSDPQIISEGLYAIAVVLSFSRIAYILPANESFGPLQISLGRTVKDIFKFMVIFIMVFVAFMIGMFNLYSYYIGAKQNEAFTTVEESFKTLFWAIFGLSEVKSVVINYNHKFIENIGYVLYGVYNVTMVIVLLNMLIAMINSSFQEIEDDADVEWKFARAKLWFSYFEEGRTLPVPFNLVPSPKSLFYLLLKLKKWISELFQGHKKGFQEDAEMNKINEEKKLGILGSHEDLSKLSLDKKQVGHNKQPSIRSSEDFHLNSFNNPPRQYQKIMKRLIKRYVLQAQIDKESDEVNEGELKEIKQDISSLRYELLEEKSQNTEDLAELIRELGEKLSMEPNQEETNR
Put plainly: TRPC6 calcium flux assay (FLIPR, OAG-stimulated calcium influx). It is filed as cell-based. To be noted: HEK293 cells stably transfected with human TRPC6, read-out: hTRPC6 Potency. A digest of the protocol: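 IC50 derived by plotting background-corrected peak fluorescence (180 s window, normalized to OAG-triggered signal vs buffer) against dose. Stable human TRPC6 HEK293 line was dye-loaded, exposed to compound 25 min, then challenged with 50 uM final OAG in 2 mM Ca2+ HEPES buffer pH 7.2, 0.5% DMSO.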
As for `CN(CC(F)(F)F)C(=O)Cn1c(N2CC[C@@H](N)C2)nc2ccc(F)cc21` [Example 490, (R)-2-(2-(3-aminopyrrolidin-1-yl)-6-fluoro-1H-benzo[d]imidazol-1-yl)-N-methyl-N-(2,2,2-trifluoroethyl)acetamide], the IC50 was greater than 3750 nM.
Then `CN(CC(F)(F)F)C(=O)Cn1c(N2CC[C@@H](CN)C2)nc2ccc(F)cc21` [Example 491, (S)-2-(2-(3-(aminomethyl)pyrrolidin-1-yl)-6-fluoro-1H-benzo[d]imidazol-1-yl)-N-methyl-N-(2,2,2-trifluoroethyl)acetamide], with greater than 3750 nM.
Consider `CN(CC(F)(F)F)C(=O)Cn1c(N2CC[C@@H]3OCCN[C@H]3C2)nc2cc(F)ccc21` [Example 493, 2-(5-fluoro-2-((4aS,8aS)-hexahydro-2H-pyrido[4,3-b][1,4]oxazin-6(5H)-yl)-1H-benzo[d]imidazol-1-yl)-N-methyl-N-(2,2,2-trifluoroethyl)acetamide], for which the IC50 is greater than 3750 nM.
Next, `N[C@@H]1CN(c2nc3cc(F)ccc3n2Cc2ncc(Cl)cn2)CC[C@H]1O` [Example 494, (3R,4R)-3-amino-1-(1-((5-chloropyrimidin-2-yl)methyl)-5-fluoro-1H-benzo[d]imidazol-2-yl)piperidin-4-ol]: 12.6 nM; `N[C@@H]1CN(c2nc3ccc(Cl)cc3n2CC(=O)N2CCOCC2)CC[C@H]1F` [Example 495, 2-(2-((3R,4R)-3-amino-4-fluoropiperidin-1-yl)-6-chloro-1H-benzo[d]imidazol-1-yl)-1-morpholinoethanone]: 12.7 nM; `N[C@@H]1CN(c2nc3cc(Cl)ccc3n2CC(=O)N2CCOCC2)CC[C@H]1F` [Example 497, -(2-((3R,4R)-3-amino-4-fluoropiperidin-1-yl)-5-chloro-1H-benzo[d]imidazol-1-yl)-1-morpholinoethanone]: 94 nM.
`C[C@H](c1ncc(Cl)cn1)n1c(N2CC[C@@H](F)[C@H](N)C2)nc2cc(F)c(F)cc21` [Example 498, (3R,4R)-1-(1-((R)-1-(5-chloropyrimidin-2-yl)ethyl)-5,6-difluoro-1H-benzo[d]imidazol-2-yl)-4-fluoropiperidin-3-amine]: the IC50 came out at 1.88 nM.
Turning to `N#Cc1ccc(Cn2c(N3CC[C@@H](F)[C@H](N)C3)nc3ncc(C(F)(F)F)cc32)nc1` [Example 499, 6-((2-((3R,4R)-3-amino-4-fluoropiperidin-1-yl)-6-(trifluoromethyl)-1H-imidazo[4,5-b]pyridin-1-yl)methyl)nicotinonitrile], the IC50 was 2.58 nM.
Next, `CN(CC(F)(F)F)C(=O)Cn1c(N2CC[C@@H](F)[C@H](N)C2)nc2cc(F)c(F)cc21` [Example 500, 2-(2-((3R,4R)-3-amino-4-fluoropiperidin-1-yl)-5,6-difluoro-1H-benzo[d]imidazol-1-yl)-N-methyl-N-(2,2,2-trifluoroethyl)acetamide]: 5.15 nM.
Then `CN(C(=O)Cn1c(N2CC[C@@H](F)[C@H](N)C2)nc2cc(F)c(F)cc21)c1nccs1` [Example 501, 2-(2-((3R,4R)-3-amino-4-fluoropiperidin-1-yl)-5,6-difluoro-1H-benzo[d]imidazol-1-yl)-N-methyl-N-(thiazol-2-yl)acetamide], with 6.21 nM; and `CN(C)C(=O)Cn1c(N2CC[C@@H](F)[C@H](N)C2)nc2ccc(Cl)cc21` [Example 502, 2-(2-((3R,4R)-3-amino-4-fluoropiperidin-1-yl)-6-chloro-1H-benzo[d]imidazol-1-yl)-N,N-dimethylacetamide], with 9.09 nM; and `N[C@@H]1CN(c2nc3ccc(F)cc3n2CC(=O)N2CCC2)CC[C@H]1F` [Example 503, 2-(2-((3R,4R)-3-amino-4-fluoropiperidin-1-yl)-6-fluoro-1H-benzo[d]imidazol-1-yl)-1-(azetidin-1-yl)ethan-1-one], with 25.6 nM.
Next, `N[C@@H]1CN(c2nc3cc(F)c(F)cc3n2CC(=O)N2CCc3sccc3C2)CC[C@H]1F` [Example 505, 2-(2-((3R,4R)-3-amino-4-fluoropiperidin-1-yl)-5,6-difluoro-1H-benzo[d]imidazol-1-yl)-1-(6,7-dihydrothieno[3,2-c]pyridin-5(4H)-yl)ethan-1-one]: 43.2 nM; `CN(C)C(=O)Cn1c(N2CC[C@@H](F)[C@H](N)C2)nc2cc(Cl)ccc21` [Example 506, 2-(2-((3R,4R)-3-amino-4-fluoropiperidin-1-yl)-5-chloro-1H-benzo[d]imidazol-1-yl)-N,N-dimethylacetamide]: 76.6 nM.
With `COc1cc(F)cc2nc(N3CC[C@@H](F)[C@H](N)C3)n(CC(=O)N(C)CC(F)(F)F)c12` [Example 509, 2-(2-((3R,4R)-3-amino-4-fluoropiperidin-1-yl)-5-fluoro-7-methoxy-1H-benzo[d]imidazol-1-yl)-N-methyl-N-(2,2,2-trifluoroethyl)acetamide], the IC50 came out at 131 nM.
As for `N[C@@H]1CN(c2nc3cc(F)c(F)cc3n2CC(=O)N2CCCCCCC2)CC[C@H]1F` [Example 510, 2-(2-((3R,4R)-3-amino-4-fluoropiperidin-1-yl)-5,6-difluoro-1H-benzo[d]imidazol-1-yl)-1-(azocan-1-yl)ethan-1-one], the IC50 is 139 nM.
`N[C@@H]1CN(c2nc3cc(F)c(F)cc3n2CC(=O)N2CCN(c3cnccn3)CC2)CC[C@H]1F` [Example 511, 2-(2-((3R,4R)-3-amino-4-fluoropiperidin-1-yl)-5,6-difluoro-1H-benzo[d]imidazol-1-yl)-1-(4-(pyrazin-2-yl)piperazin-1-yl)ethan-1-one]: the IC50 is 158 nM.
Then `COC(=O)C1CCN(C(=O)Cn2c(N3CC[C@@H](F)[C@H](N)C3)nc3cc(F)c(F)cc32)CC1` [Example 512, methyl 1-(2-(2-((3R,4R)-3-amino-4-fluoropiperidin-1-yl)-5,6-difluoro-1H-benzo[d]imidazol-1-yl)acetyl)piperidine-4-carboxylate], with 162 nM; and `CCC1CN(C(=O)Cn2c(N3CC[C@@H](F)[C@H](N)C3)nc3cc(F)c(F)cc32)CCO1` (stereo partly drawn) [Example 513, 2-(2-((3R,4R)-3-amino-4-fluoropiperidin-1-yl)-5,6-difluoro-1H-benzo[d]imidazol-1-yl)-1-(2-ethylmorpholino)ethan-1-one], with 183 nM.
`N[C@@H]1CN(c2nc3cc(F)ccc3n2CC(=O)N2CCC2)CC[C@H]1F` [Example 514, 2-(2-((3R,4R)-3-amino-4-fluoropiperidin-1-yl)-5-fluoro-1H-benzo[d]imidazol-1-yl)-1-(azetidin-1-yl)ethan-1-one]: the IC50 came to 185 nM.
Then `CC1CCN(C(=O)Cn2c(N3CC[C@@H](F)[C@H](N)C3)nc3cc(F)c(F)cc32)CC1` [Example 516, 2-(2-((3R,4R)-3-amino-4-fluoropiperidin-1-yl)-5,6-difluoro-1H-benzo[d]imidazol-1-yl)-1-(4-methylpiperidin-1-yl)ethan-1-one], with 197 nM.
Then `CCC1CN(C(=O)Cn2c(N3CC[C@@H](F)[C@H](N)C3)nc3cc(F)c(F)cc32)CCO1` (stereo partly drawn) [Example 518, 2-(2-((3R,4R)-3-amino-4-fluoropiperidin-1-yl)-5,6-difluoro-1H-benzo[d]imidazol-1-yl)-1-(2-ethylmorpholino)ethan-1-one], with 400 nM.
